From article PMC12990037, “Discovery of Two Structurally Distinct Classes of Inhibitors Targeting the Nuclease MUS81 and Enhancing Efficacy of Chemotherapy in Cancer Cells” (Journal of Medicinal Chemistry, 2026)

Assays:
[1] = tested on: U2OS, HEK293, and CAL51; experiment: Cell proliferation assay (CyQUANT), combination with cisplatin; format: cell-based; conditions: cisplatin alone, 5 days
Description: 7 MUS81 inhibitors synergize with cisplatin to reduce cancer cell viability. (A,B) U2OS cells were treated with DMSO, MU262, or MU876 at the indicated concentrations in combination with a range of cisplatin (0–5 μM) for 96–120 h. Cell viability was assessed by the Cy-Quant assay. The survival was normalized to the DMSO-treated control. Graphs were generated in Graphpad Prism using the nonlinear regression fitting model. n ≥ 3, error bars represent s.d. (C) CAL51 WT cells were treated with DMSO, MU262, or MU876 at the indicated concentrations at each passage over 2 weeks. Cisplatin (12 μM) was added for the last 24 h before harvest. DNA damage was assessed by quantifying γH2AX foci using fluorescence microscopy and CellProfiller software. Data were visualized plotted in R software. Red markers represent the median of γH2AX foci number per nucleus; blue markers represent the percentage of cells with ≥20 γH2AX foci per nucleus. n = 3, error bars represent s.d.; ****p <0.0001 (unpaired, two-tailed t-test). TEXT PRINTED IN THE PICTURE: (C) D: γH2AX foci: 2.4 (DMSO); γH2AX foci: 59.6 (Cisplatin) | (C) MU262: γH2AX foci: 2.3 (1 μM; DMSO); γH2AX foci: 3 (2 μM; DMSO); γH2AX foci: 55.4 (1 μM; Cisplatin); γH2AX foci: 43.2 (2 μM; Cisplatin) | (C) MU876: γH2AX foci: 2.8 (0.25 μM; DMSO); γH2AX foci: 0.9 (0.5 μM; DMSO); γH2AX foci: 48.2 (0.25 μM; Cisplatin); γH2AX foci: 42.6 (0.5 μM; Cisplatin) DOUBTS OF THE COPYIST ABOUT THIS PICTURE: Panel C: the numbers in the blue markers have no measure or unit of their own printed in the picture; the axis title 'γH2AX foci' is given as the measure, but the numbers may stand for another quantity. / Panel C: 'D' is a control column with no concentration; it may not count as a substance. / Panel C: small white print on blue markers; 59.6, 55.4, 48.2, 43.2, 42.6, 2.8 and 0.9 are best readings (3, 5, 6, 8 and 9 are hard to tell apart).
CAL51 WT, CAL51 MUS81^–/–, U2OS, and HEK293 cells were seeded in a 96-well plate and treated with the respective concentration of selected inhibitors. […]

[2] = tested on: MUS81; parameters: method as in PMID 37352577; conditions: FRET-based DNA cleavage assay; cited from earlier work

Row | SMILES | cell viability [1] | IC50 [2] [nM]
1 | N.N.[Cl][Pt][Cl] [cisplatin, reference compound] | dose-dependent decrease of viability | –
2 | O=C(N/N=C/c1cc(O)c(O)cc1O)c1cc2ccccc2cc1O [Dyngo-4a] | – | 570
